Laboratory results taken from ChEMBL document CHEMBL3120068, “Identification of diverse natural products as falcipain-2 inhibitors through structure-based virtual screening” (Bioorg Med Chem Lett, 2014).

Columns and labels:
[1] = Inhibition of recombinant Plasmodium falciparum falcipain 2 after 30 mins by fluorescence assay
Plasmodium falciparum [2] = assay: Antiplasmodial activity against chloroquine-sensitive blood stage Plasmodium falciparum 3D7 after 72 hrs by SYBR Green I-based fluorescence assay; assay type: functional, organism-based; conditions: 3D7, 72 h
Plasmodium falciparum [3] = assay: Antiplasmodial activity against chloroquine-resistant blood stage Plasmodium falciparum Dd2 after 72 hrs by SYBR Green I-based fluorescence assay; assay type: functional, organism-based; conditions: Dd2, 72 h

| Compound | IC50 [1] [µM] | IC50 (Plasmodium falciparum [2]) [µM] | IC50 (Plasmodium falciparum [3]) [µM] |
| --- | --- | --- | --- |
| CCCCOC(=O)[C@H]1c2c(/C=C/C(=O)O[C@H](Cc3ccc(O)c(O)c3)C(=O)O)ccc(O)c2O[C@@H]1c1ccc(O)c(O)c1 | 3.18 | – | – |
| O=C1c2c(O)cc(O)cc2O[C@H](c2cc(O)c(O)c(O)c2)[C@@H]1O | 44.8 | 75.5 | > 50 |
| O=C1c2c(O)cc(O)cc2O[C@@]2(c3ccc(O)cc3)Oc3cc(O)c4c(c3[C@]12O)O[C@H](c1ccc(O)cc1)CC4 | 5.23 | 60.6 | 66.7 |
| CCOC(=O)c1c(O)cc(O)c2c1OC(c1ccc(O)cc1)CC2 (configuration not stated) | 9.12 | 60.3 | 86.8 |
| COc1cc(O[C@@H]2O[C@H](CO[C@@H]3OC[C@@H](O)[C@H](O)[C@H]3O)[C@@H](O)[C@H](O)[C@H]2O)c2c(=O)cc(-c3ccc(O)cc3)oc2c1 | 17.1 | > 250 | > 500 |
| COc1cc(-c2oc3cc(O)cc(O)c3c(=O)c2O[C@@H]2O[C@H](COC(C)=O)[C@@H](O)[C@H](O)[C@H]2O)cc(OC)c1O | 68.2 | – | – |
| C[C@@H]1CC[C@H]2[C@@H](C)C(=O)O[C@@H]3O[C@@]4(C)CC[C@@H]1[C@]32OO4 [ARTEMISININ] | – | 0.04 | 0.049 |
| COC(=O)[C@@H](Cc1ccc(O)c(O)c1)OC(=O)/C=C/c1ccc(O)c2c1[C@H](C(=O)OC)[C@@H](c1ccc(O)c(O)c1)O2 [DIMETHYL LITHOSPERMATE] | 3.77 | – | – |
| CC(C)C[C@H](NC(=O)[C@H]1O[C@@H]1C(=O)O)C(=O)NCCCCN=C(N)N [E-64] | 0.017 | – | – |
| C[C@@H]1O[C@@H](O[C@H]2[C@H](O)[C@@H](COC(=O)/C=C/c3ccc(O)c(O)c3)O[C@H]3OC[C@H](c4ccc(O)c(O)c4)O[C@@H]32)[C@H](O)[C@H](O)[C@H]1O [ISOCRENATOSIDE] | 53.1 | > 50 | 93.1 |
| O=c1c(O[C@@H]2O[C@H](CO)[C@@H](O)[C@H](O)[C@H]2O)c(-c2ccc(O)c(O)c2)oc2cc(O)cc(O)c12 [ISOQUERCETIN] | 15.7 | 5.54 | 4.05 |
| O=C1c2c(O)cc(O)cc2O[C@H](c2ccc(O)c(O)c2)[C@H]1O [TAXIFOLIN] | 56.9 | 48.2 | 55 |
